According to ChEMBL document CHEMBL1201862, “PubChem BioAssay data set” (2004):
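Growth conditions: 96-well plates. Treatment: test compound, 48 hours, 5 concentrations. Analysis: linear interpolation between bracketing concentrations; unreached endpoints set to highest concentration. GI50: concentration for 50% inhibition of growth.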 The source made the active and inactive calls. Rule as the data show it: active = GI50 up to about 1.1 µM and inactive = higher.

Key:
Assay in all cases: growth of human tumour cells (NCI), 48 h
[1] = test system: OVCAR-3
[2] = test system: SK-OV-3
[3] = test system: NCI-H226
[4] = test system: RXF 393
[5] = test system: HL-60
[6] = test system: U-251
[7] = test system: A549
[8] = test system: HCC 2998
[9] = test system: COLO 205
[10] = test system: BT-549
[11] = test system: NCI-H23
[12] = test system: HOP-92
[13] = test system: M14
[14] = test system: 786-0
[15] = test system: UO-31
[16] = test system: NCI-H460
[17] = test system: SF-539
[18] = test system: TK-10
[19] = test system: MDA-MB-435
[20] = test system: UACC-62
[21] = test system: NCI/ADR-RES
[22] = test system: MOLT-4
[23] = test system: SK-MEL-5
[24] = test system: A498
[25] = test system: SF-295
[26] = test system: MDA-N
[27] = test system: EKVX
[28] = test system: HOP-62
[29] = test system: HCT-15
[30] = test system: SNB-75
[31] = test system: NCI-H522
[32] = test system: T47D
[33] = test system: RPMI-8226
[34] = test system: Malme-3M
[35] = test system: IGROV-1
[36] = test system: OVCAR-4
[37] = test system: PC-3
[38] = test system: SNB-19
[39] = test system: HT-29
[40] = test system: CCRF-CEM
[41] = test system: SR
[42] = test system: CAKI-1
[43] = test system: KM12
[44] = test system: DU-145
[45] = test system: SW-620
[46] = test system: SF-268
[47] = test system: MCF7
[48] = test system: K562
[49] = test system: SN12C
[50] = test system: HCT-116
[51] = test system: UACC-257
[52] = test system: SK-MEL-28
[53] = test system: ACHN
[54] = test system: OVCAR-8
[55] = test system: LOX IMVI
[56] = test system: MDA-MB-231
[57] = test system: Hs-578T
[58] = test system: SK-MEL-2
[59] = test system: OVCAR-5

O/N=C1\CCc2cc3c(cc21)CCC3
GI50 [1]: > 100 µM (inactive) | GI50 [2]: > 100 µM (inactive) | GI50 [3]: > 100 µM (inactive) | GI50 [4]: > 100 µM (inactive) | GI50 [5]: 67.5 µM (inactive) | GI50 [6]: > 100 µM (inactive) | GI50 [7]: > 100 µM (inactive) | GI50 [8]: > 100 µM (inactive) | GI50 [9]: > 100 µM (inactive) | GI50 [10]: > 100 µM (inactive) | GI50 [11]: > 100 µM (inactive) | GI50 [12]: 55.7 µM (inactive) | GI50 [13]: > 100 µM (inactive) | GI50 [14]: > 100 µM (inactive) | GI50 [15]: > 100 µM (inactive) | GI50 [16]: > 100 µM (inactive) | GI50 [17]: > 100 µM (inactive) | GI50 [18]: > 100 µM (inactive) | GI50 [19]: > 100 µM (inactive) | GI50 [20]: > 100 µM (inactive) | GI50 [21]: > 100 µM (inactive) | GI50 [22]: > 100 µM (inactive) | GI50 [23]: > 100 µM (inactive) | GI50 [24]: > 100 µM (inactive) | GI50 [25]: > 100 µM (inactive) | GI50 [26]: > 100 µM (inactive) | GI50 [27]: 5.65 µM (inactive) | GI50 [28]: > 100 µM (inactive) | GI50 [29]: > 100 µM | GI50 [30]: 44.3 µM (inactive) | GI50 [31]: > 100 µM (inactive) | GI50 [32]: 86.3 µM (inactive) | GI50 [33]: > 100 µM (inactive) | GI50 [34]: > 100 µM (inactive) | GI50 [35]: > 100 µM (inactive) | GI50 [36]: > 100 µM (inactive) | GI50 [37]: > 100 µM (inactive) | GI50 [38]: > 100 µM (inactive) | GI50 [39]: > 100 µM (inactive) | GI50 [40]: > 100 µM (inactive) | GI50 [41]: > 100 µM (inactive) | GI50 [42]: > 100 µM (inactive) | GI50 [43]: > 100 µM (inactive) | GI50 [44]: > 100 µM (inactive) | GI50 [45]: > 100 µM (inactive) | GI50 [46]: 97.9 µM (inactive) | GI50 [47]: > 100 µM (inactive) | GI50 [48]: > 100 µM (inactive) | GI50 [49]: > 100 µM (inactive) | GI50 [50]: > 100 µM (inactive) | GI50 [51]: > 100 µM (inactive) | GI50 [52]: > 100 µM (inactive) | GI50 [53]: > 100 µM (inactive) | GI50 [54]: > 100 µM (inactive) | GI50 [55]: > 100 µM (inactive) | GI50 [56]: > 100 µM (inactive) | GI50 [57]: 34.9 µM (inactive) | GI50 [58]: > 100 µM (inactive) | GI50 [59]: > 100 µM (inactive)

CC(C)(C)OC(=O)NC1CC=CCC1NC(=O)OC(C)(C)C (configuration not stated)
GI50 [1]: > 100 µM (inactive) | GI50 [2]: > 100 µM (inactive) | GI50 [3]: > 100 µM (inactive) | GI50 [4]: 95.5 µM (inactive) | GI50 [5]: > 100 µM (inactive) | GI50 [6]: > 100 µM (inactive) | GI50 [7]: > 100 µM (inactive) | GI50 [8]: > 100 µM (inactive) | GI50 [9]: > 100 µM (inactive) | GI50 [10]: > 100 µM (inactive) | GI50 [11]: > 100 µM (inactive) | GI50 [12]: > 100 µM (inactive) | GI50 [13]: > 100 µM (inactive) | GI50 [14]: > 100 µM (inactive) | GI50 [15]: > 100 µM (inactive) | GI50 [16]: > 100 µM (inactive) | GI50 [17]: > 100 µM (inactive) | GI50 [18]: > 100 µM (inactive) | GI50 [19]: > 100 µM (inactive) | GI50 [20]: > 100 µM (inactive) | GI50 [21]: > 100 µM (inactive) | GI50 [22]: > 100 µM (inactive) | GI50 [23]: 97.7 µM (inactive) | GI50 [24]: > 100 µM (inactive) | GI50 [25]: > 100 µM (inactive) | GI50 [26]: > 100 µM (inactive) | GI50 [28]: > 100 µM (inactive) | GI50 [29]: > 100 µM | GI50 [30]: > 100 µM (inactive) | GI50 [31]: > 100 µM (inactive) | GI50 [32]: > 100 µM (inactive) | GI50 [33]: > 100 µM (inactive) | GI50 [34]: > 100 µM (inactive) | GI50 [35]: > 100 µM (inactive) | GI50 [36]: > 100 µM (inactive) | GI50 [37]: > 100 µM (inactive) | GI50 [38]: > 100 µM (inactive) | GI50 [39]: > 100 µM (inactive) | GI50 [40]: > 100 µM (inactive) | GI50 [41]: > 100 µM (inactive) | GI50 [42]: > 100 µM (inactive) | GI50 [43]: > 100 µM (inactive) | GI50 [44]: > 100 µM (inactive) | GI50 [45]: > 100 µM (inactive) | GI50 [46]: > 100 µM (inactive) | GI50 [47]: > 100 µM (inactive) | GI50 [48]: 97.9 µM (inactive) | GI50 [49]: > 100 µM (inactive) | GI50 [50]: > 100 µM (inactive) | GI50 [51]: > 100 µM (inactive) | GI50 [52]: > 100 µM (inactive) | GI50 [53]: > 100 µM (inactive) | GI50 [54]: > 100 µM (inactive) | GI50 [55]: > 100 µM (inactive) | GI50 [56]: > 100 µM (inactive) | GI50 [57]: > 100 µM (inactive) | GI50 [58]: > 100 µM (inactive) | GI50 [59]: > 100 µM (inactive)
